# From patent US20220401589A1, “PRE-TARGETING IMAGING AGENTS” (Eli Lilly and Company, priority 2019, published 2022)
# What was measured:
# [1] = Reduction of tetrazine moiety by ascorbate formulation; assay type: physicochemical
# Description: In another aspect the present embodiments provide a pharmaceutical composition comprising Compound 1 or Compound 2, or pharmaceutically acceptable salt thereof, which is formulated in ethanol (such as, for example 10% EtOH (v/v)) and buffer (which may be PBS buffer), preferably for use in humans. […] Thus, although ascorbate formulation is readily used in many formulations for imaging, it may not be suitable for imaging with the compounds of Formula I or Formula II.
# [2] = Dynamic PET-CT imaging, tracer uptake in brain, muscle and bone; assay type: in vivo, Male CD-1 mice; settings: for Bone Mean / Brain Mean / Muscle Mean: 60 minute PET scan
# Method: PET-CT imaging of [^18F]—N-(4-(1,2,4,5-tetrazin-3-yl)benzyl)-4-fluorobenzamide
# A Siemens Inveon® Multimodality Scanner (Siemens, Germany) is used for micro PET/CT imaging. Male CD-1 (6-week-old, ˜30 g) mice are anesthetized with 3% isoflurane/97% oxygen and placed on the bed of the scanner. The mice are administered [^18F]—N-(4-(1,2,4,5-tetrazin-3-yl)benzyl)-4-fluorobenzamide via a bolus intravenous tail vein injection (˜[…] in a total volume of 200 μL saline). A total of six (four 60 min and two 90 min) dynamic PET scans are conducted, followed by a short high-resolution CT scan for anatomical registration. PET images are generated for each minute of the acquisition time. Uptake of the tracer in the brain, muscle, and bone are determined by visually drawing regions of interest (ROIs) based on the fused PET/CT images and the corresponding activity values are determined using the Inveon® Research Workplace software. All values are represented as % injected dose per gram (% ID/g).
# Bone uptake throughout the scan period remained low, consistent with an absence of defluorination for this tracer. Results of the 90 min scans are similar to the 60 min scan results with peak brain uptake observed at 3.4% ID/g at 2.5 min post injection followed by an immediate wash out to 0.6% ID/g by 59.5 min. Residual uptake is also observed throughout the body of the mouse. Time activity curves are generated for [^18F]—N-(4-(1,2,4,5-tetrazin-3-yl)benzyl)-4-fluorobenzamide in CD-1 male mice (n=4). Data is shown in graphical format in FIGS. 1A and 1B and in tabular format below.
compound,measurement,setting,value
"O=C(NCc1ccc(-c2nncnn2)cc1)c1ccc(F)cc1 [Compound 1, N-(4-(1,2,4,5-tetrazin-3-yl)benzyl)-4-fluorobenzamide]",reduction of the tetrazine moiety,[1],readily reduced
"O=C(NCc1ccc(-c2nncnn2)cc1)c1ccc([18F])cc1 [[^18F]—N-(4-(1,2,4,5-tetrazin-3-yl)benzyl)-4-fluorobenzamide]",Uptake throughout the body,[2]; 60-minute PET scans,"observed throughout the body in organs such as the liver, kidneys and heart"
same,Bone Mean,[2]; time 2.5 min,1.28 % ID/g
same,Brain Mean,[2]; time 2.5 min,4.06 % ID/g
same,Muscle Mean,[2]; time 2.5 min,1.14 % ID/g
same,Bone Mean,[2]; time 3.5 min,1.09 % ID/g
same,Brain Mean,[2]; time 3.5 min,3.70 % ID/g
same,Muscle Mean,[2]; time 3.5 min,1.13 % ID/g
same,Bone Mean,[2]; time 4.5 min,1.04 % ID/g
same,Brain Mean,[2]; time 4.5 min,3.36 % ID/g
same,Muscle Mean,[2]; time 4.5 min,1.15 % ID/g
same,Bone Mean,[2]; time 5.5 min,1.01 % ID/g
same,Brain Mean,[2]; time 5.5 min,3.20 % ID/g
same,Muscle Mean,[2]; time 5.5 min,1.17 % ID/g
same,Bone Mean,[2]; time 6.5 min,1.07 % ID/g
same,Brain Mean,[2]; time 6.5 min,3.01 % ID/g
same,Muscle Mean,[2]; time 6.5 min,1.10 % ID/g
same,Bone Mean,[2]; time 7.5 min,1.12 % ID/g
same,Brain Mean,[2]; time 7.5 min,2.81 % ID/g
same,Muscle Mean,[2]; time 7.5 min,1.11 % ID/g
same,Bone Mean,[2]; time 8.5 min,1.04 % ID/g
same,Brain Mean,[2]; time 8.5 min,2.62 % ID/g
same,Muscle Mean,[2]; time 8.5 min,1.15 % ID/g
same,Bone Mean,[2]; time 9.5 min,0.97 % ID/g
same,Brain Mean,[2]; time 9.5 min,2.46 % ID/g
same,Muscle Mean,[2]; time 9.5 min,1.09 % ID/g
same,Bone Mean,[2]; time 10.5 min,1.03 % ID/g
same,Brain Mean,[2]; time 10.5 min,2.32 % ID/g
same,Muscle Mean,[2]; time 10.5 min,1.09 % ID/g
same,Bone Mean,[2]; time 11.5 min,1.01 % ID/g
same,Brain Mean,[2]; time 11.5 min,2.17 % ID/g
same,Muscle Mean,[2]; time 11.5 min,1.08 % ID/g
same,Bone Mean,[2]; time 12.5 min,0.93 % ID/g
same,Brain Mean,[2]; time 12.5 min,2.07 % ID/g
same,Muscle Mean,[2]; time 12.5 min,1.06 % ID/g
same,Bone Mean,[2]; time 13.5 min,0.96 % ID/g
same,Brain Mean,[2]; time 13.5 min,1.97 % ID/g
same,Muscle Mean,[2]; time 13.5 min,1.06 % ID/g
same,Bone Mean,[2]; time 14.5 min,0.78 % ID/g
same,Brain Mean,[2]; time 14.5 min,1.88 % ID/g
same,Muscle Mean,[2]; time 14.5 min,1.00 % ID/g
same,Bone Mean,[2]; time 15.5 min,0.89 % ID/g
same,Brain Mean,[2]; time 15.5 min,1.79 % ID/g
same,Muscle Mean,[2]; time 15.5 min,1.02 % ID/g
same,Bone Mean,[2]; time 16.5 min,0.96 % ID/g
same,Brain Mean,[2]; time 16.5 min,1.70 % ID/g
same,Muscle Mean,[2]; time 16.5 min,1.02 % ID/g
same,Bone Mean,[2]; time 17.5 min,0.87 % ID/g
same,Brain Mean,[2]; time 17.5 min,1.64 % ID/g
same,Muscle Mean,[2]; time 17.5 min,1.03 % ID/g
same,Bone Mean,[2]; time 18.5 min,0.92 % ID/g
same,Brain Mean,[2]; time 18.5 min,1.58 % ID/g
same,Muscle Mean,[2]; time 18.5 min,1.05 % ID/g
same,Bone Mean,[2]; time 19.5 min,0.93 % ID/g
same,Brain Mean,[2]; time 19.5 min,1.52 % ID/g
same,Muscle Mean,[2]; time 19.5 min,0.94 % ID/g
same,Bone Mean,[2]; time 20.5 min,1.01 % ID/g
same,Brain Mean,[2]; time 20.5 min,1.47 % ID/g
same,Muscle Mean,[2]; time 20.5 min,0.95 % ID/g
same,Bone Mean,[2]; time 21.5 min,0.88 % ID/g
same,Brain Mean,[2]; time 21.5 min,1.42 % ID/g
same,Muscle Mean,[2]; time 21.5 min,1.06 % ID/g
same,Bone Mean,[2]; time 22.5 min,0.99 % ID/g
same,Brain Mean,[2]; time 22.5 min,1.38 % ID/g
same,Muscle Mean,[2]; time 22.5 min,1.04 % ID/g
same,Bone Mean,[2]; time 23.5 min,0.85 % ID/g
same,Brain Mean,[2]; time 23.5 min,1.33 % ID/g
same,Muscle Mean,[2]; time 23.5 min,0.92 % ID/g
same,Bone Mean,[2]; time 24.5 min,0.88 % ID/g
same,Brain Mean,[2]; time 24.5 min,1.29 % ID/g
same,Muscle Mean,[2]; time 24.5 min,0.96 % ID/g
same,Bone Mean,[2]; time 25.5 min,1.02 % ID/g
same,Brain Mean,[2]; time 25.5 min,1.26 % ID/g
same,Muscle Mean,[2]; time 25.5 min,0.97 % ID/g
same,Bone Mean,[2]; time 26.5 min,0.88 % ID/g
same,Brain Mean,[2]; time 26.5 min,1.23 % ID/g
same,Muscle Mean,[2]; time 26.5 min,0.92 % ID/g
same,Bone Mean,[2]; time 27.5 min,0.83 % ID/g
same,Brain Mean,[2]; time 27.5 min,1.18 % ID/g
same,Muscle Mean,[2]; time 27.5 min,0.89 % ID/g
same,Bone Mean,[2]; time 28.5 min,0.92 % ID/g
same,Brain Mean,[2]; time 28.5 min,1.17 % ID/g
same,Muscle Mean,[2]; time 28.5 min,0.91 % ID/g
same,Bone Mean,[2]; time 29.5 min,0.93 % ID/g
same,Brain Mean,[2]; time 29.5 min,1.14 % ID/g
same,Muscle Mean,[2]; time 29.5 min,0.94 % ID/g
same,Bone Mean,[2]; time 30.5 min,0.92 % ID/g
same,Brain Mean,[2]; time 30.5 min,1.11 % ID/g
same,Muscle Mean,[2]; time 30.5 min,0.93 % ID/g
same,Bone Mean,[2]; time 31.5 min,0.96 % ID/g
same,Brain Mean,[2]; time 31.5 min,1.09 % ID/g
same,Muscle Mean,[2]; time 31.5 min,0.99 % ID/g
same,Bone Mean,[2]; time 32.5 min,0.85 % ID/g
same,Brain Mean,[2]; time 32.5 min,1.07 % ID/g
same,Muscle Mean,[2]; time 32.5 min,0.89 % ID/g
same,Bone Mean,[2]; time 33.5 min,0.95 % ID/g
same,Brain Mean,[2]; time 33.5 min,1.04 % ID/g
same,Muscle Mean,[2]; time 33.5 min,0.93 % ID/g
same,Brain Mean,[2]; time 34.5 min,1.04 % ID/g
same,peak brain uptake,"[2]; 90 min scans, 2.5 min post injection",3.4 % ID/g
same,brain uptake after wash out,"[2]; 90 min scans, by 59.5 min",0.6 % ID/g
same,peak brain uptake,"[2]; WT mice, approximately 2.5 min post injection",4.1±0.3 % ID/g
same,brain uptake after steady clearance of tracer,"[2]; WT mice, by 60 minutes",0.8±0.1 % ID/g
same,Bone uptake throughout the scan period,[2]; consistent with an absence of defluorination,remained low
same,crossing of the blood-brain-barrier,[2]; dynamic PET imaging in mice,readily crosses the blood-brain-barrier
same,peak brain uptake,"[2]; four 60-minute PET scans, 2.5 min post injection",4.1 % ID/g
same,brain uptake after steady clearance of tracer,"[2]; four 60-minute PET scans, at 59.5 min",0.8 % ID/g
same,reduction of the tetrazine moiety,[1],readily reduced
